“Also recorded” adds a separate entry of the source.
Tests used:
ROCK2 = ROCK2 (Homo sapiens, UniProt O75116); assay: SelectScreen additional single point analysis; conditions: 10 μM
recombinant ROCK = assay: In vitro ROCK activity assay (Cyclex Rho-kinase immunoassay); assay type: biochemical; conditions: FIG. 2A bar chart
Protocol: A specific assay was used to evaluate the ability of the compounds of the invention to inhibit ROCK. Rho-kinase activity was determined using an immunoassay as recommended by the manufacturer (Cyclex Co., Ltd., Nagano, Japan). Briefly, […] samples containing 10 mUnit (1 Unit incorporates 1 nmol of phosphate into GST-MBS/MYPT1 per minute at 30° C.) of recombinant ROCK with or without the compounds of the invention were aliquoted into a 96-well plate (100 μl/well), pre-coated with threonine Rho-kinase phosphorylation substrate. After 30 min incubation at 30° C., the plate was washed three times with PBS then incubated with 100 μl/well of HRP conjugated anti-phospho-specific antibody for 1 h at room temperature. The amount of phosphorylated substrate was determined by adding 100 μl/well of substrate reagent for 10 min and the reaction was terminated by adding 100 μl/well of the stop solution. The absorbance was measured on a 96-well plate reader at 450 nm (Dynex Technologies, West Sussex, UK). Each data point was performed in triplicate and the assay was repeated twice.

ROCK1 = ROCK1 (Homo sapiens, UniProt Q13464); assay: SelectScreen additional single point analysis; conditions: 10 μM
Sequence of ROCK1 (Q13464 whole entry): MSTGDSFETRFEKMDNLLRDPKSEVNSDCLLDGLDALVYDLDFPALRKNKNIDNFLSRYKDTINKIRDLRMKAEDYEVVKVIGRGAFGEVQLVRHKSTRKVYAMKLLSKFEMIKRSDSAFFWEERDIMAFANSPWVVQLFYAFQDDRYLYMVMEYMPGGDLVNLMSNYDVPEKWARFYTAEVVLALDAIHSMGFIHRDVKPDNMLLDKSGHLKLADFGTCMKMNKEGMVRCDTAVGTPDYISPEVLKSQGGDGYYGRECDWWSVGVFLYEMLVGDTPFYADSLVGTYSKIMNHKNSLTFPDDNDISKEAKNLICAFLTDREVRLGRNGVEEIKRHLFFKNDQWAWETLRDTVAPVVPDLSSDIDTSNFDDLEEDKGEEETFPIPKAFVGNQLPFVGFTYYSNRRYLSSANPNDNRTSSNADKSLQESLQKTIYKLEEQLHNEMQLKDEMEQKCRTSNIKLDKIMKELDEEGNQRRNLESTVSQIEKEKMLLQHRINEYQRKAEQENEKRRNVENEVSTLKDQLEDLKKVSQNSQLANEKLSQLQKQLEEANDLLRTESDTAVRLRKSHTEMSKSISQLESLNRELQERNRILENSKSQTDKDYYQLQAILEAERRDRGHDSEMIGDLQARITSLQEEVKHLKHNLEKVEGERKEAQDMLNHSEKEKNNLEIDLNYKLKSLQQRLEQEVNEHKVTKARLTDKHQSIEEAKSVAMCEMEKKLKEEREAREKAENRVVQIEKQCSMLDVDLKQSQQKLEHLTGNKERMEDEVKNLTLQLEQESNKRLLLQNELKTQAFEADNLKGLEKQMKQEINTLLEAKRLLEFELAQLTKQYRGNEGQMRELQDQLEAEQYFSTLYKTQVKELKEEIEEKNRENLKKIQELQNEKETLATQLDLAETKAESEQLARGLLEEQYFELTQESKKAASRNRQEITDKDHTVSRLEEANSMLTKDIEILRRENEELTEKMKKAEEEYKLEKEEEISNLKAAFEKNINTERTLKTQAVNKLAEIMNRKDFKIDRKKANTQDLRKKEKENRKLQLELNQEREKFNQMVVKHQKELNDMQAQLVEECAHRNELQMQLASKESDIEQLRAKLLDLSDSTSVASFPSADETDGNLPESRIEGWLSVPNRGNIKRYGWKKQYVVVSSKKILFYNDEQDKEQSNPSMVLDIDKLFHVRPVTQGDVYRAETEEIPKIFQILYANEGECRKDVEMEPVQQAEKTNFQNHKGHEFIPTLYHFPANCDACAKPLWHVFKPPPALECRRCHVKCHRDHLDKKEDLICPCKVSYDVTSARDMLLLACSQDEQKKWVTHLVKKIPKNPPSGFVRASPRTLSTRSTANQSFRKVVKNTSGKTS

[1] = tested on: GEF16 transformed donor cells and non-transformed NIH3T3-vector recipient cells; assay: Flow cytometric LY/PKH67 assay of gap junction intercellular communication (GJIC); assay type: cell-based, mouse; conditions: 10 μM, p<0.05, FIG. 6B
Protocol: A novel flow cytometric assay was developed to measure the extent of gap junction intercellular communication (GJIC) using two differentially stained cell populations. Non-transformed recipient NIH3T3-vector cells were stained with PKH67 (Excitation 490, Emission 502, Sigma-Aldrich, Poole, UK) and GEF16 transformed donor cells were stained with Lucifer yellow (LY) (Excitation 427 nm, Emission 517 nm, Invitrogen Ltd., Paisley, UK) as follows.
A 1 ml suspension of 1×10^7 recipient cells in serum-free DMEM was mixed with an equal volume of 4 μM PKH67 solution and incubated for 5 min at room temperature. The reaction was terminated by adding 2 ml serum and incubating for 1 min. Cells were then washed three times with culture medium, and seeded at 1.5×10^6 cells/T-25 flask. […]
LY labelled donor cells were then harvested and 1×10^5 were added to the T25 flask containing the PKH67 labelled recipient cells plus 10 μM YA1 or DMSO control. After incubating for various time intervals, the co-cultured donor and recipient cells were collected and analysed using a BD FACS Aria™ (BD Biosciences, Oxford, UK). A 405 nm laser was used for LY excitation and emission was measured using a 515 nm to 545 nm band pass filter. GJIC between co-cultured donor and recipient cells was quantified as the percentage of LY and PKH67 double labelled cells.

Aurora A = target: T1, Aurora A (Homo sapiens, UniProt O14965); assay: SelectScreen in vitro kinase profiling, single point
T1 sequence (O14965 1-403): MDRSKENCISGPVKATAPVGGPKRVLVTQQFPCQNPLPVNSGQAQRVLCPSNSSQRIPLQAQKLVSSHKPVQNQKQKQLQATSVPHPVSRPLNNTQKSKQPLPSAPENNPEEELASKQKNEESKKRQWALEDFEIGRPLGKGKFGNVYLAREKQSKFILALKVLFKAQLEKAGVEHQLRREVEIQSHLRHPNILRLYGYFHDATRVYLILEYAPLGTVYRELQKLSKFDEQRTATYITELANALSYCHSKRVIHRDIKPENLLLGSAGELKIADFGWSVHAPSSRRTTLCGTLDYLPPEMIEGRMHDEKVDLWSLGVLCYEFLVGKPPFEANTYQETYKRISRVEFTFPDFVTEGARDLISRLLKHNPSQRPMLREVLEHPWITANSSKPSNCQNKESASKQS

[2] = tested on: polyclonal Ras transformed NIH3T3 cells; assay: Co-culture of Ras transformed cells with non-transformed cells / Ras colony formation; assay type: cell-based, mouse
Protocol: FIG. 5 illustrates that the growth suppressive effects of YA1 on single transformed colony derived GEF16 NIH3T3 cells and polyclonal Ras transformed NIH3T3 cells are more pronounced when these are co-cultured with non-transformed cells. In FIG. 5A single transformed colonies were picked from 10 day cultures of GEF16 polyclonal NIH3T3 cells and expanded. These cells were then seeded at 2.0×10^5 cells per 30 mm dish and treated with 10 μM of YA1 or DMSO control either immediately or following 10 days in culture. Duplicate wells were harvested for flow cytometry. In FIG. 5B a total of 2×10^5 cells per well were plated consisting of increasing numbers of non-transformed vector cells co-cultured with decreasing numbers of single transformed colony derived GEF16 cells. These were treated with 10 μM of either YA1 or DMSO for 10 days. […]
Transformed cell populations were produced by transfection with constructs causing cellular expression of GEF16 or Ras as follows. The full-length GEF16 open reading frame (Accession NM_014448) was PCR amplified, sequence verified and subcloned into the mammalian expression vector pCMVTag (Invitrogen Ltd., Paisley, UK) to produce a construct pCMVTag-GEF16 cDNA. […]

[3] = tested on: polyclonal GEF16 transfected NIH3T3 cells; assay: Transformed colony forming assay (Toluidine blue)
Protocol: Following this incubation period the compound was then removed from the culture media and cells maintained in normal growth media for a further 10 days before the photographs shown were taken.
In FIG. 4A polyclonal GEF16 transfected cells were seeded at 2.0×10^5 cells per 30 mm dish and incubated over night. […] After a further 10 days culture in the absence of inhibitors the cells were stained with Toluidine blue and photographed to produce the images shown. […] These were incubated for 3 or 6 days then stained with Toluidine blue before being photographed.
Medium (containing the compound of interest—either Y27632 or the selected compounds of the invention—or DMSO control) was changed every 2 days. Formation of foci was analysed by Toluidine blue (Sigma-Aldrich, Poole, UK) staining after 10 days growth post confluence. […] Each assay was carried out in triplicate and the results shown are representative of at least three separate experiments.

p38 alpha (MAPK14) = p38 alpha (MAPK14) (Homo sapiens, UniProt Q16539); assay: SelectScreen in vitro kinase profiling, single point
Sequence of p38 alpha (MAPK14) (Q16539 whole entry): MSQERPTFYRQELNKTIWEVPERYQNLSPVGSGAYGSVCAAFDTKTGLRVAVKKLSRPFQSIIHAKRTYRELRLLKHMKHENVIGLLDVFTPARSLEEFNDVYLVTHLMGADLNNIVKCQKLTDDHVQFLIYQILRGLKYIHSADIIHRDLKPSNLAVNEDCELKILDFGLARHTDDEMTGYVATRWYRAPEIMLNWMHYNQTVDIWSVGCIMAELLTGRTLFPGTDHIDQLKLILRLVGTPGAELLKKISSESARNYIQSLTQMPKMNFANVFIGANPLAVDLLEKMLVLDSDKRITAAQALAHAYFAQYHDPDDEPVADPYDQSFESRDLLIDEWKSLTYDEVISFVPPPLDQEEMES

[4] = additional single point analysis, 10 μM

Sequence of ROCK2 (O75116 whole entry): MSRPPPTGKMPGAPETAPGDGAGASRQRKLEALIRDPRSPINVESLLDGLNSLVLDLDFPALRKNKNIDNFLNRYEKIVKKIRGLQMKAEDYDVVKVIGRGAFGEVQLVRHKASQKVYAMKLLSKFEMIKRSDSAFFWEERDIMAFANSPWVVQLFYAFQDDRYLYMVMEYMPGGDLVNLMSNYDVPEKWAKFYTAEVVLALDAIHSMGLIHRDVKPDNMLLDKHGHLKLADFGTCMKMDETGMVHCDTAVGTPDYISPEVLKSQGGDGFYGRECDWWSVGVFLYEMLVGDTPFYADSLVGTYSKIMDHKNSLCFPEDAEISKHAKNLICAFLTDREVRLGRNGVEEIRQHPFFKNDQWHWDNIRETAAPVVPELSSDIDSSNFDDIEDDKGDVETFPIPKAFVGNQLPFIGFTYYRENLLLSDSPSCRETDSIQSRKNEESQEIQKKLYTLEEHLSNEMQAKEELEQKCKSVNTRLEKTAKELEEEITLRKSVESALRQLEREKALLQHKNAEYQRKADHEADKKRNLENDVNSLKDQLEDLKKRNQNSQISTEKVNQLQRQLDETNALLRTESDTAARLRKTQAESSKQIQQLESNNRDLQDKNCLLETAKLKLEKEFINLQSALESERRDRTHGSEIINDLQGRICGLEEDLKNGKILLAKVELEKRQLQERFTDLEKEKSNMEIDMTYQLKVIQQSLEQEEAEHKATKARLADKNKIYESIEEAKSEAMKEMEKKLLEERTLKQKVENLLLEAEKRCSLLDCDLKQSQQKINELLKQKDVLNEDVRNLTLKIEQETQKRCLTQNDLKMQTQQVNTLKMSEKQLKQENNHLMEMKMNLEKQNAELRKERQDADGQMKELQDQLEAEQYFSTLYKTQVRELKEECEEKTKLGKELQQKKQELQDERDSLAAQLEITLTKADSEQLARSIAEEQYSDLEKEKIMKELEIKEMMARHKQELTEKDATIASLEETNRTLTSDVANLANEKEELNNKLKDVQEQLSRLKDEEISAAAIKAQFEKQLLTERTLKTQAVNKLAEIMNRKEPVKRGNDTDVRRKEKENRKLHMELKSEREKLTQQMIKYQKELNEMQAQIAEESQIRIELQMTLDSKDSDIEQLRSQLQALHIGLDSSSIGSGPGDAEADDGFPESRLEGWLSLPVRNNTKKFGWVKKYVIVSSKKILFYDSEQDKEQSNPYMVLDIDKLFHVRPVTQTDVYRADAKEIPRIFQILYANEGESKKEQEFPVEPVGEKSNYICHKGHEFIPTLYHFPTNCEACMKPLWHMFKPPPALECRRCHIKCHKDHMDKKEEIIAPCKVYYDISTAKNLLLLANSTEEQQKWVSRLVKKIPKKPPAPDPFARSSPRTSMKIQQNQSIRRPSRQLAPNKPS

## CC(C)(C)OC(=O)NCc1ccc(C(=O)Nc2ccncc2)cc1 [YA1, 4-(Pyridin-4-ylcarbamoyl)benzylcarbamic acid tert-butyl ester]
ROCK2
  activity against ROCK2: less activity against ROCKs than YA2
Recombinant ROCK
  ROCK inhibitory activity compared to Y27632: lower ROCK inhibitory activity; also recorded: significantly less activity against ROCK than did their structural analogue Y27632
ROCK1
  activity against ROCK1: less activity against ROCKs than YA2
[1]
  number of double LY/PKH67 labelled cells compared to DMSO control: approximately 3 times
Aurora A; [4]
  activity against Aurora A: significant activity against p38, HGK and Aurora A
Aurora A; read-out: inhibitory activity against Aurora A
  inhibition at 10 µM: 44%
[2]; 10 μM, 10 days, co-culture with non-transformed cells
  growth suppression / colony formation of Ras transformed NIH3T3 cells: same growth suppressive effects on Ras transformed NIH3T3 cell colonies as with GEF16 transformed cells; also recorded: highly effective at preventing the formation of Ras transformed NIH3T3 colonies
[2]; YA1 treated
  contact inhibition and polarity of Ras transformed cells (phase contrast images): regain both contact inhibition and polarity
[3]; 10 μM for 2, 4, 6, 8, 10 days, then 10 day chase in normal media
  number of transformed foci after transient exposure and withdrawal: progressive decrease in the number of transformed foci associated with increased time of exposure
[3]; 10 μM for 2-10 days, re-seeded at 2×10^5, 10 day chase without inhibitor
  transformed focus formation after treatment, re-seeding and chase: able to suppress transformed focus formation
[3]; 10 μM, 10 days, post confluent cultures
  formation of GEF16 transformed colonies: able to block transformed GEF16 colony formation to an extent comparable to the inhibition achieved using Y27632; also recorded: greatest ability to inhibit GEF16 transformed colonies
[3]; colonies formed for 10 days, then 10 μM or 20 μM for 3 and 6 days
  effect on pre-formed transformed colonies: marked reduction in their numbers
p38 alpha (MAPK14); [4]
  activity against p38: significant activity against p38, HGK and Aurora A
p38 alpha (MAPK14); read-out: inhibitory activity against p38 alpha (MAPK14)
  inhibition at 10 µM: 72%
